Laboratory results as given in the NIST ThermoML archive (doi:10.1016/j.jct.2017.11.017).
± gives the expanded uncertainty stated by the source.

Experiment: activity coefficient (dimensionless); of the first substance listed, at infinite dilution; xn = mol fraction of the nth substance listed
Settings: 101.33 kPa, Liquid, Chromatography, x1 = 0

Structure (SMILES) | activity coefficient (318.15 K) | activity coefficient (328.15 K) | activity coefficient (338.15 K) | activity coefficient (348.15 K) | activity coefficient (358.15 K) | activity coefficient (368.15 K) | activity coefficient (308.15 K) | activity coefficient (298.15 K)
CCC(C)(C)OC [2-methoxy-2-methylbutane] + C[n+]1ccn(CCCO)c1.N#CN=C=[N-] | 36.8 ± 2.5 | 37 ± 2.5 | 37.2 ± 2.5 | 37.5 ± 2.6 | 37.7 ± 2.6 | 38.1 ± 2.6 | – | –
C1CCCCCC1 [cycloheptane] + C[N+]1(CCCO)CCOCC1.N#C[N-]C#N | 341 ± 23 | 297 ± 20 | 260 ± 18 | 230 ± 16 | 206 ± 14 | 185 ± 13 | 391 ± 27 | –
C=COC(C)=O [vinyl acetate] + C[n+]1ccn(CCCO)c1.N#CN=C=[N-] | 4.73 ± 0.32 | 4.92 ± 0.34 | 5.12 ± 0.35 | 5.3 ± 0.36 | 5.49 ± 0.37 | 5.68 ± 0.39 | – | –
CCCCO [butan-1-ol] + C[N+]1(CCCO)CCOCC1.N#C[N-]C#N | 4.66 ± 0.32 | 4.5 ± 0.31 | 4.39 ± 0.3 | 4.26 ± 0.29 | 4.17 ± 0.28 | 4.08 ± 0.28 | – | –
CCCC=O [butanal] + C[N+]1(CCCO)CCOCC1.N#C[N-]C#N | 4.26 ± 0.29 | 4.49 ± 0.31 | 4.74 ± 0.32 | 4.97 ± 0.34 | 5.19 ± 0.35 | 5.38 ± 0.37 | – | –
CC1CCCCC1 [methylcyclohexane] + C[N+]1(CCCO)CCOCC1.N#C[N-]C#N | 508 ± 35 | 404 ± 28 | 321 ± 22 | – | – | – | 654 ± 45 | 865 ± 60
C#CCCCCC [1-heptyne] + C[n+]1ccn(CCCO)c1.N#CN=C=[N-] | 34.6 ± 2.4 | 34.6 ± 2.4 | 35.1 ± 2.4 | 35.3 ± 2.4 | 35.3 ± 2.4 | – | 34.3 ± 2.3 | 34 ± 2.3
C1CCCCC1 [cyclohexane] + C[n+]1ccn(CCCO)c1.N#CN=C=[N-] | 97.9 ± 6.7 | 91.1 ± 6.2 | 85.5 ± 5.9 | 80.4 ± 5.5 | 76.6 ± 5.2 | – | 105 ± 7 | 115 ± 8
C=C(C)c1ccccc1 [(1-methylethenyl)benzene] + C[N+]1(CCCO)CCOCC1.N#C[N-]C#N | 18.1 ± 1.2 | 18.9 ± 1.3 | 19.5 ± 1.3 | 20.1 ± 1.4 | 20.7 ± 1.4 | 21.3 ± 1.5 | – | –
CCCO [propan-1-ol] + C[N+]1(CCCO)CCOCC1.N#C[N-]C#N | 2.63 ± 0.18 | 2.58 ± 0.18 | 2.55 ± 0.17 | 2.52 ± 0.17 | 2.49 ± 0.17 | 2.46 ± 0.17 | – | –
CC(C)CO [2-methyl-1-propanol] + C[n+]1ccn(CCCO)c1.N#CN=C=[N-] | 2.79 ± 0.19 | 2.72 ± 0.19 | 2.68 ± 0.18 | 2.64 ± 0.18 | 2.6 ± 0.18 | 2.58 ± 0.18 | – | –
C1=CCCCC1 [cyclohexene] + C[n+]1ccn(CCCO)c1.N#CN=C=[N-] | 36.1 ± 2.5 | 34.5 ± 2.4 | 32.7 ± 2.2 | 31.4 ± 2.1 | 30 ± 2.1 | – | 38.2 ± 2.6 | 40.7 ± 2.8
CC(C)OC(C)C [diisopropyl ether] + C[n+]1ccn(CCCO)c1.N#CN=C=[N-] | 96 ± 6.6 | 92.7 ± 6.4 | 90.6 ± 6.2 | 88 ± 6 | 86.5 ± 5.9 | 84.3 ± 5.8 | – | –
CC(C)(C)O [2-methylpropan-2-ol] + C[N+]1(CCCO)CCOCC1.N#C[N-]C#N | 4.35 ± 0.3 | 4.27 ± 0.29 | 4.21 ± 0.29 | 4.17 ± 0.28 | 4.14 ± 0.28 | 4.09 ± 0.28 | – | –
c1ccsc1 [thiophene] + C[N+]1(CCCO)CCOCC1.N#C[N-]C#N | 3.23 ± 0.22 | 3.37 ± 0.23 | 3.51 ± 0.24 | 3.64 ± 0.25 | 3.77 ± 0.26 | 3.9 ± 0.27 | – | –
CCOC(C)=O [ethyl acetate] + C[n+]1ccn(CCCO)c1.N#CN=C=[N-] | 5.72 ± 0.39 | 5.95 ± 0.41 | 6.18 ± 0.42 | 6.36 ± 0.43 | 6.61 ± 0.45 | 6.86 ± 0.47 | – | –
O [water] + C[n+]1ccn(CCCO)c1.N#CN=C=[N-] | 0.35 ± 0.03 | 0.36 ± 0.03 | 0.37 ± 0.03 | 0.38 ± 0.03 | 0.4 ± 0.03 | 0.41 ± 0.03 | – | –
C1COCCO1 [1,4-dioxane] + C[N+]1(CCCO)CCOCC1.N#C[N-]C#N | 1.94 ± 0.13 | 2.07 ± 0.14 | 2.2 ± 0.15 | 2.33 ± 0.16 | 2.45 ± 0.17 | 2.59 ± 0.18 | – | –
CCCCCCC [heptane] + C[N+]1(CCCO)CCOCC1.N#C[N-]C#N | – | – | – | – | – | – | 1290 ± 89 | 1540 ± 110
C#CCCCC [1-hexyne] + C[n+]1ccn(CCCO)c1.N#CN=C=[N-] | 19.6 ± 1.3 | 20 ± 1.4 | 20.3 ± 1.4 | 20.6 ± 1.4 | 21.4 ± 1.5 | – | 19.3 ± 1.3 | 18.8 ± 1.3
C=Cc1ccccc1 [styrene] + C[n+]1ccn(CCCO)c1.N#CN=C=[N-] | 5.97 ± 0.41 | 6.25 ± 0.43 | 6.57 ± 0.45 | 6.82 ± 0.46 | 7.14 ± 0.49 | 7.39 ± 0.5 | – | –
